Test results reported in ChEMBL document CHEMBL1201862, “PubChem BioAssay data set” (2004).
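The compound was tested at five concentrations on cells cultured in 96-well plates, with a 48-hour exposure period. Here, GI50 denotes the concentration required for 50% inhibition of growth.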 The source made the active and inactive calls. Cut-off read from the data, not from the text of the source: active = GI50 up to about 1.1 µM and inactive = higher.

Columns and labels:
Assay in all cases: NCI tumour cell line growth inhibition, 48 h
786-0 = system: 786-0
A498 = system: A498
A549 = system: A549
ACHN = system: ACHN
BT-549 = system: BT-549
CAKI-1 = system: CAKI-1
CCRF-CEM = system: CCRF-CEM
COLO 205 = system: COLO 205
DU-145 = system: DU-145
EKVX = system: EKVX
HCC 2998 = system: HCC 2998
HCT-116 = system: HCT-116
HCT-15 = system: HCT-15
HL-60 = system: HL-60
HOP-62 = system: HOP-62
HOP-92 = system: HOP-92
HT-29 = system: HT-29
Hs-578T = system: Hs-578T
IGROV-1 = system: IGROV-1
K562 = system: K562
KM12 = system: KM12
LOX IMVI = system: LOX IMVI
M14 = system: M14
MCF7 = system: MCF7
MDA-MB-231 = system: MDA-MB-231
MDA-MB-435 = system: MDA-MB-435
MDA-N = system: MDA-N
MOLT-4 = system: MOLT-4
Malme-3M = system: Malme-3M
NCI-H226 = system: NCI-H226
NCI-H23 = system: NCI-H23
NCI-H460 = system: NCI-H460
NCI-H522 = system: NCI-H522
NCI/ADR-RES = system: NCI/ADR-RES
OVCAR-3 = system: OVCAR-3
OVCAR-4 = system: OVCAR-4
OVCAR-5 = system: OVCAR-5
OVCAR-8 = system: OVCAR-8
PC-3 = system: PC-3
RPMI-8226 = system: RPMI-8226
RXF 393 = system: RXF 393
SF-268 = system: SF-268
SF-295 = system: SF-295
SF-539 = system: SF-539
SK-MEL-28 = system: SK-MEL-28
SK-MEL-2 = system: SK-MEL-2
SK-MEL-5 = system: SK-MEL-5
SK-OV-3 = system: SK-OV-3
SN12C = system: SN12C
SNB-19 = system: SNB-19
SNB-75 = system: SNB-75
SR = system: SR
SW-620 = system: SW-620
T47D = system: T47D
TK-10 = system: TK-10
U-251 = system: U-251
UACC-257 = system: UACC-257
UACC-62 = system: UACC-62
UO-31 = system: UO-31

In the case of COc1cc(C2c3cc4c(cc3OC(N3CCCCC3)C2C)OCO4)cc(OC)c1O (configuration not stated), the GI50 (786-0) is reported as 8.77 µM (inactive), the GI50 (A498) is reported as 10.9 µM (inactive) and the GI50 (A549) is reported as 10.7 µM (inactive). For the same compound, the GI50 (ACHN) was 8.57 µM (inactive), the GI50 (BT-549) was 10.5 µM (inactive) and the GI50 (CAKI-1) was 12 µM (inactive). The GI50 (CCRF-CEM) was 3.4 µM (inactive), the GI50 (COLO 205) was 17.7 µM (inactive) and the GI50 (DU-145) was 19.5 µM (inactive). The GI50 (EKVX) was 26.1 µM (inactive), the GI50 (HCC 2998) was 12.2 µM (inactive) and the GI50 (HCT-116) was 4.59 µM (inactive). For the same compound, the GI50 (HCT-15) was 11.6 µM, the GI50 (HL-60) was 4.15 µM (inactive) and the GI50 (HOP-62) was 6.78 µM (inactive). The GI50 (HOP-92) was 15 µM (inactive), the GI50 (HT-29) was 8.75 µM (inactive) and the GI50 (Hs-578T) was 7.53 µM (inactive). For the same compound, the GI50 (IGROV-1) was 9.98 µM (inactive), the GI50 (K562) was 4.06 µM (inactive) and the GI50 (KM12) was 5.89 µM (inactive). The GI50 (LOX IMVI) was 9.77 µM (inactive), the GI50 (M14) was 9.42 µM (inactive) and the GI50 (MCF7) was 5.33 µM (inactive). For the same compound, the GI50 (MDA-MB-231) was 9.38 µM (inactive), the GI50 (MDA-MB-435) was 2.21 µM (inactive) and the GI50 (MDA-N) was 2.14 µM (inactive). For the same compound, the GI50 (MOLT-4) was 6.12 µM (inactive), the GI50 (Malme-3M) was 4.36 µM (inactive) and the GI50 (NCI-H226) was 21.9 µM (inactive). The GI50 (NCI-H23) was 18.7 µM (inactive), the GI50 (NCI-H460) was 6.64 µM (inactive) and the GI50 (NCI-H522) was 3.67 µM (inactive). For the same compound, the GI50 (NCI/ADR-RES) was 4.57 µM (inactive), the GI50 (OVCAR-3) was 6.12 µM (inactive) and the GI50 (OVCAR-4) was 17.3 µM (inactive). For the same compound, the GI50 (OVCAR-5) was 20.1 µM (inactive), the GI50 (OVCAR-8) was 13.4 µM (inactive) and the GI50 (PC-3) was 7.91 µM (inactive). The GI50 (RPMI-8226) was 9.35 µM (inactive), the GI50 (RXF 393) was 14.5 µM (inactive) and the GI50 (SF-268) was 13.8 µM (inactive). For the same compound, the GI50 (SF-295) was 3.7 µM (inactive), the GI50 (SF-539) was 9.64 µM (inactive) and the GI50 (SK-MEL-28) was 9.89 µM (inactive). The GI50 (SK-MEL-2) was 7.73 µM (inactive), the GI50 (SK-MEL-5) was 5.7 µM (inactive) and the GI50 (SK-OV-3) was 5.89 µM (inactive). The GI50 (SN12C) was 11.4 µM (inactive), the GI50 (SNB-19) was 16.3 µM (inactive) and the GI50 (SNB-75) was 2.96 µM (inactive). The GI50 (SR) was 4.82 µM (inactive), the GI50 (SW-620) was 5.31 µM (inactive) and the GI50 (T47D) was 11.7 µM (inactive). The GI50 (TK-10) was 16.4 µM (inactive), the GI50 (U-251) was 9.71 µM (inactive) and the GI50 (UACC-257) was 13.4 µM (inactive). For the same compound, the GI50 (UACC-62) was 4.23 µM (inactive) and the GI50 (UO-31) was 15 µM (inactive).

With O=C(O)/C=C/c1ccc(OS(=O)(=O)O)cc1 the GI50 (786-0) was > 100 µM (inactive), the GI50 (A498) was > 100 µM (inactive) and the GI50 (A549) was > 100 µM (inactive). The GI50 (ACHN) was > 100 µM (inactive), the GI50 (BT-549) was > 100 µM (inactive) and the GI50 (CAKI-1) was > 100 µM (inactive). The GI50 (COLO 205) was > 100 µM (inactive), the GI50 (DU-145) was > 100 µM (inactive) and the GI50 (EKVX) was > 100 µM (inactive). The GI50 (HCC 2998) was > 100 µM (inactive), the GI50 (HCT-116) was > 100 µM (inactive) and the GI50 (HCT-15) was > 100 µM. The GI50 (HL-60) was > 100 µM (inactive), the GI50 (HOP-62) was > 100 µM (inactive) and the GI50 (HOP-92) was > 100 µM (inactive). For the same compound, the GI50 (HT-29) was > 100 µM (inactive), the GI50 (Hs-578T) was > 100 µM (inactive) and the GI50 (IGROV-1) was > 100 µM (inactive). For the same compound, the GI50 (K562) was > 100 µM (inactive), the GI50 (KM12) was > 100 µM (inactive) and the GI50 (LOX IMVI) was > 100 µM (inactive). For the same compound, the GI50 (M14) was > 100 µM (inactive), the GI50 (MCF7) was > 100 µM (inactive) and the GI50 (MDA-MB-231) was > 100 µM (inactive). The GI50 (MDA-MB-435) was > 100 µM (inactive), the GI50 (MDA-N) was > 100 µM (inactive) and the GI50 (MOLT-4) was > 100 µM (inactive). For the same compound, the GI50 (Malme-3M) was > 100 µM (inactive), the GI50 (NCI-H226) was > 100 µM (inactive) and the GI50 (NCI-H23) was > 100 µM (inactive). The GI50 (NCI-H460) was > 100 µM (inactive), the GI50 (NCI-H522) was > 100 µM (inactive) and the GI50 (NCI/ADR-RES) was > 100 µM (inactive). The GI50 (OVCAR-3) was > 100 µM (inactive), the GI50 (OVCAR-4) was > 100 µM (inactive) and the GI50 (OVCAR-5) was > 100 µM (inactive). The GI50 (OVCAR-8) was > 100 µM (inactive), the GI50 (PC-3) was > 100 µM (inactive) and the GI50 (RPMI-8226) was > 100 µM (inactive). For the same compound, the GI50 (RXF 393) was 1.49 µM (inactive), the GI50 (SF-268) was > 100 µM (inactive) and the GI50 (SF-295) was > 100 µM (inactive). The GI50 (SF-539) was > 100 µM (inactive), the GI50 (SK-MEL-28) was > 100 µM (inactive) and the GI50 (SK-MEL-2) was > 100 µM (inactive). For the same compound, the GI50 (SK-MEL-5) was > 100 µM (inactive), the GI50 (SK-OV-3) was > 100 µM (inactive) and the GI50 (SN12C) was > 100 µM (inactive). For the same compound, the GI50 (SNB-19) was > 100 µM (inactive), the GI50 (SNB-75) was > 100 µM (inactive) and the GI50 (SR) was > 100 µM (inactive). For the same compound, the GI50 (SW-620) was > 100 µM (inactive), the GI50 (T47D) was > 100 µM (inactive) and the GI50 (TK-10) was > 100 µM (inactive). For the same compound, the GI50 (U-251) was > 100 µM (inactive), the GI50 (UACC-257) was > 100 µM (inactive) and the GI50 (UACC-62) was > 100 µM (inactive). For the same compound, the GI50 (UO-31) was > 100 µM (inactive).
